For data set [1], the target named is T1, recombinant human PDE5 (Homo sapiens, UniProt O76074).
T1 construct: host or cells: Saccharomyces cerevisiae strain BJ2-54 (ATCC 74465)
Put plainly: Inhibitory effect on cGMP-PDE (PDE5 IC50 determination). It is filed as biochemical. The following applies: in vitro, read-out: IC50 versus PDE5. As to the method: The compounds of structural formula (I) were tested for an ability to inhibit PDE5. The ability of a compound to inhibit PDE5 activity is related to the IC50 value for the compound, i.e., the concentration of inhibitor required for 50% inhibition of enzyme activity. The IC50 value for compounds of structural formula (I) were determined using recombinant human PDE5.
Phosphodiesterase activity of the preparations was determined as follows. PDE assays utilizing a charcoal separation technique were performed essentially as described in Loughney et al. (1996). In this assay, PDE activity converts [32P]cAMP or [32P]cGMP to the corresponding [32P]5′-AMP or [32P]5′-GMP in proportion to the amount of PDE activity present. The [32P]5′-AMP or [32P]5′-GMP then was quantitatively converted to free [32P]phosphate and unlabeled adenosine or guanosine by the action of snake venom 5′-nucleotidase. […] The assay was performed at 30° C. in a 100 μL reaction mixture containing (final concentrations) 40 mM Tris HCl (pH 8.0), 1 μM ZnSO4, 5 mM MgCl2, and 0.1 mg/mL bovine serum albumin (BSA). PDE enzyme was present in quantities that yield <30% total hydrolysis of substrate (linear assay conditions). The assay was initiated by addition of substrate ([…] [32P]cAMP or cGMP), and the mixture was incubated for 12 minutes. Seventy-five (75) μg of Crotalus atrox venom then was added, and the incubation was continued for 3 minutes (15 minutes total). The reaction was stopped by addition of 200 μL of activated charcoal (25 mg/mL suspension in 0.1 M NaH2PO4, pH 4). After centrifugation (750×g for 3 minutes) to sediment the charcoal, a sample of the supernatant was taken for radioactivity determination in a scintillation counter and the PDE activity was calculated.
cGMP-PDE activity of compounds of the present invention was measured using a one-step assay adapted from Wells et al., Biochim. Biophys. Acta, 384, 430 (1975). The reaction medium contained 50 mM Tris-HCl, pH 7.5, 5 mM magnesium acetate, 250 μg/ml 5′-Nucleotidase, 1 mM EGTA, and 0.15 μM 8-[H^3]-cGMP. Unless otherwise indicated, the enzyme used was a human recombinant PDE5 (ICOS Corp., Bothell, Wash.).
Compounds of the invention were dissolved in DMSO finally present at 2% in the assay.

In general, IC50 refers to the midpoint of a concentration-inhibition curve. The term melting point denotes the temperature of the solid-liquid transition. For the compound `CN1CC(=O)N2[C@H](c3ccc4c(c3)OCO4)c3[nH]c4ncccc4c3C[C@@H]2C1=O` (racemic) [Example 1, (+/−,cis)-10-Benzo[1,3]dioxol-5-yl-7-methyl-5,5a,7,8,10,11-hexahydro-1,7,9a,11-tetraazabeno[β]fluorene-6,9-dione], the melting point lay in the range of 262 to 276 °C. Further, in data set [1], the IC50 came out at 2.3 nM.

In turn, `CN1CC(=O)N2[C@H](c3ccc4c(c3)OCO4)c3sc4ccccc4c3C[C@@H]2C1=O` (racemic) [Example 4, (+/−,cis)-10-Benzo[1,3]dioxol-5-yl-7-methyl-5,7,8,10-tetrahydro-5aH-11-thia-7,9a-diazabenzo[β]fluorene-6,9-dione] registered a melting point of 245 to 266 °C. Further, the IC50 in data set [1] is 555 nM.

Compound `CN1CC(=O)N2[C@H](c3ccc4c(c3)OCO4)c3c([nH]c4ccccc34)C[C@@H]2C1=O` [Example 5(a), (5R,9aR)-5-Benzo(1,3)dioxol-5-yl-8-methyl-5,7,8,9a,10,11-hexahydro-5a,8,11-triaza-benzo[b]fluorane-8,9-dione] yielded a melting point of 274 to 277 °C. The IC50 in data set [1] is 338 nM.

`CN1CC(=O)N2[C@@H](c3ccc4c(c3)OCO4)c3c([nH]c4ccccc34)C[C@@H]2C1=O` [Example 5(b), (5S,9aR)-5-Benzo[1,3]dioxol-5-yl-8-methyl-5,7,8,9a,10,11-hexahydro-5a,8,11-triaza-benzo[b]fluorene-8,9-dione]: the melting point lay within 274 to 277 °C. Also, the half-inhibitory concentration (IC50) in data set [1] stood at 125 nM.

For the origin of these results see US6903099B2, “Condensed pyrazindione derivatives” (Lilly Icos LLC, priority 2000, dated 2005).
